# Results reported in patent US20210393539A1, “FERRITIN NANOPARTICLES COMPRISING A CHEMOTHERAPEUTIC AGENT” (INTHENA S.R.L., priority 2018, published 2021).
# Tests used:
# patient-derived PBMC = tested on: patient-derived PBMC
# From the text: FIG. 1: DOX effects on proliferation potential of PBMC from patients under neoadjuvant chemotherapy.
# A. Flow cytometry of DOX internalization profile in PBMC isolated from a representative patient before and after DOX parenteral infusion.
# B. Quantification of Mean Fluorescence Intensity (MFI) in PBMC isolated from patients. The profiles represent the values of DOX fluorescence in each patient before and after chemotherapy. The histogram reports the mean DOX fluorescence value between all the samples analyzed.
# C. Representative image of proliferation analysis of PBMC isolated from BC patients before and after 1 cycle of neoadjuvant chemotherapy with DOX using CFSE assay.
# D. Quantification of proliferative index at different days of culture after Concanavalin A stimulation (ConA). The proliferation index is the ratio between proliferating cells and progenitor cells. The absence of proliferation is represented by a proliferative index of 1.
# FIG. 2: Characterization of lymphocytes subpopulations that internalize DOX. Flow cytometry immunophenotyping of T-Lymphocytes CD8+ e CD4+ to identify populations that internalize DOX (high, int, low). CM: Central Memory, EM: Effector Memory.
# [1] = mouse, in vivo
smiles,measurement,setting,value
"COc1cccc2c1C(=O)c1c(O)c3c(c(O)c1C2=O)C[C@@](O)(C(=O)CO)C[C@@H]3O[C@H]1C[C@H](N)[C@H](O)[C@H](C)O1 [DOX, doxorubicin]",DOX uptake by lymphocyte sub-populations,patient-derived PBMC; FIG. 2,naïve T-cells (CD3+CD8+/CD4+CD45RO−) displayed the highest DOX uptake
same,DOX internalization in PBMC,patient-derived PBMC; PBMC isolated after chemotherapy (FIG. 1),promptly internalized DOX
same,proliferation in response to mitogenic stimulations,patient-derived PBMC; after versus before chemotherapy (FIG. 1),dramatic proliferative impairment
same,cardiomyocyte cross-section area,[1],increase in cardiomyocyte cross-section area
same,mitochondria area and cristae morphology,[1],alteration in mitochondria area and cristae morphology
same,mitochondria number in heart tissue,[1],increase in mitochondria number
same,mitochondrial membrane potential and amount of reduced glutathione,[1],induced alterations
